# Data reported in patent US20230270696A1, “MEDICINAL USE OF FINGOLIMOD IN PREVENTION AND TREATMENT OF NEURODEGENERATIVE DISEASES CAUSED BY SPHINGOLIPID DISORDERS” (priority 2020, published 2023).
# Counter-ions that a name gives are not always drawn.
# Key:
# [1] = system: MEF cells deficient in ATP13A2; assay: Drug screening: intracellular sphingomyelin (SM C18) content by mass spectrometry; format: cell-based, mouse; settings: ATP13A2 KO MEF cells treated 48 hours (FIG. 8 legend: 10 μM, 37° C., 24 h)
# Method: Experimental method: ten potential sphingolipid metabolic drugs reported in the literature for screening the modulatory effects on intracellular sphingolipids are selected, namely Fingolimod, Fluoxetine, Amitriptyline, Clomipramine, Desipramine, Siponimod, KRP-203, Amlodipine, Sertraline, Trimipramine, etc. MEF cells with disease-causing gene ATP13A2 KO are obtained using the disease model mouse embryos isolated and cultured. The MEF cells deficient in ATP13A2 are treated with the above ten drugs individually for 48 hours, and the intracellular content of sphingomyelin (SM C18) is measured by mass spectrometry.
# sphingomyelinase = assay: Sphingomyelinase activity assay (Sphingomyelinase Assay Kit ab138876) with or without FTY720; format: biochemical; settings: different sphingomyelinase concentrations, sphingomyelin as substrate, 60 min at 37° C., absorbance
# Method: Different concentrations (horizontal axis) of purified sphingomyelinase are added in the presence or absence of FTY720 and incubation proceeded for 60 min at 37° C., before measuring sphingomyelin breakdown in absorbance. Blue line (top line): value of sphingomyelinase activity under normal control conditions, red line (bottom line): value of sphingomyelinase activity in the presence of FTY720.
# Embodiment 4: Direct inhibition of sphingomyelinase by FTY720 Experimental method: FTY720 is purchased from Sigma, Cas No. 162359-56-0. Sphingomyelinase activity is determined using the Sphingomyelinase Assay Kit (ab138876) kit. The experiment is divided into two groups: normal sphingomyelinase activity assay group and sphingomyelinase activity assay group in the presence of FTY720.
# [2] = system: ATP13A2 KO neurodegenerative disease model mice; assay: Rotating rod test of movement function; format: in vivo, mouse
# Method: Experimental method: five drugs, including fingolimod, fluoxetine, clomipramine, desipramine, and trimipramine, are selected for oral administration (0.5 mg/kg) to diseased mice. The effect of the drugs on the movement function of the mice is examined one week after drug administration.
# (§1) Experimental method: The experiment is divided into four groups: C57BL/6 normal WT mice+normal saline control group (WT+C group), ATP13A2 KO neurodegenerative disease model mice+normal saline control group (KO+C group), normal WT mice+FTY720 group (WT+FTY720 group), and ATP13A2 KO neurodegenerative disease model mice+FTY720 group (KO+FTY720 group). The mice are injected intraperitoneally with FTY720 (0.25 mg/kg/day, i.p.). 5 days later, the mice are tested for movement function using a rotating rod test.
# as §1, with “group),” for “group), and”, “group). FTY720 dissolved in water is administered to” for “group). The”, “mice orally administered (0.5 mg/kg/day), and one week” for “mice are injected intraperitoneally with FTY720 (0.25 mg/kg/day, i.p.). 5 days”, “using the” for “using a”
# as §1, with “group). A single administration (10 μg, i.c.v.) is administered to the” for “group). The”, “mice by ventricular injection, and one week” for “mice are injected intraperitoneally with FTY720 (0.25 mg/kg/day, i.p.). 5 days”, “using the” for “using a”
# (§2) Experimental method: The experiment is divided into four groups: C57BL/6 normal WT mice+normal saline control group (WT+C group), ATP13A2 KO aged disease model mice+normal saline control group (KO+C group), normal WT mice+FTY720 group (WT+FTY720 group), and ATP13A2 KO neurodegenerative disease model mice+FTY720 group (KO+FTY720 group). The mice are administered orally (0.5 mg/kg/day), and after two weeks, the movement function of the mice is examined using the standing test and the rotating rod test.
# [3] = system: ATP13A2 KO neurodegenerative disease model mice; assay: Expression of genes related to sphingolipid metabolism in orbitofrontal cortex; format: in vivo, mouse; settings: one week after i.p. 0.5 mg/kg
# Method: Red (dark) color indicates high expression and blue (light) color indicates low expression.
# Experimental method: the experiment is divided into 4 groups: C57BL/6 normal WT mice+normal saline control group (WT+C group), ATP13A2 KO neurodegenerative disease model mice+normal saline control group (KO+C group), normal WT mice+FTY720 group (WT+FTY720 group), and ATP13A2 KO neurodegenerative disease model mice+FTY720 group (KO+FTY720 group). One week after intraperitoneal injection of FTY720 (0.5 mg/kg), samples are extracted from the orbitofrontal cortex area of mouse brain tissue, and Smpd1 Smpd2 Smpd3 Smpd4 Enpp7 Asah1 Asah2 Acer1 Acer2 Acer3 Cers1 Cers2 Cers3 Cers4 Cers5 Cers6 Col4a3 bp Cerk Gba Ugcg Degs1 Degs2 Sgpl1 Sptlc1 Sptic2 Sptic3 Abca1 Abca2 Abca7 Abca12 Abcc1 Abcg1 Abcg2 Sgms1 Sgms2 Cftr Sphk1 Sphk2 Slpr1 Kit Hexa Hexb Gal3st1 Gaphdh TERC TERT Ki67, etc. totally 47 genes related to sphingolipid metabolism are analyzed for comparison.
# [4] = system: ATP13A2 KO neurodegenerative disease model mice; assay: Lipidomic assay of striatum brain tissue (LC-MS); format: in vivo, mouse; settings: one week after i.p. 0.5 mg/kg
# Method: Experimental method: the experiment is divided into 4 groups: C57BL/6 normal WT mice+normal saline control group (WT+C group), ATP13A2 KO neurodegenerative disease model mice+normal saline control group (KO+C group), normal WT mice+FTY720 group (WT+FTY720 group), and ATP13A2 KO neurodegenerative disease model mice+FTY720 group (KO+FTY720 group). One week after intraperitoneal injection of FTY720 (0.5 mg/kg), mice are sampled from the striatum of brain tissue, lipids are extracted from the brain tissue samples using a lipid extraction method, appropriate internal standards are added. All lipid analysis is performed in electrospray ionization (ESI) mode using a liquid mass spectrometer.
# [5] = system: ATP13A2 KO spastic paraplegic model mice; assay: Standing test (number of standing per 30 minutes); format: in vivo, mouse
# Method: 1-7 days with administration treatment on the disease model mice (shaded), 7-14 days with discontinuation treatment (unshaded), and 15-21 days with restored secondary administration treatment (shaded).
# Experimental method: Spastic paraplegic ATP13A2 KO mice (KO mice) are divided into four groups and given normal saline or FTY720 dissolved in normal saline at 0.05, 0.1, and 0.5 mg/kg/day for oral administration, and the mice are tested in a standing test after 7 days of oral administration.
# Experimental method: The experiment is divided into two groups: C57BL/6 wild normal mice (WT) and ATP13A2 KO spastic paraplegic model mice (KO), which are administered FTY720 0.5 mg/k/day orally at the same time, discontinued after 0-7 days of administration, and resumed after one week of discontinuation, during which the mice are tested for standing every other day.
# as §2
# [6] = system: aged ATP13A2 KO paraplegic mouse; assay: Standing in beaker and hind limb foot-based angle (FBA) before and after drug administration; format: in vivo
# Method: as §2
# Meanwhile, the same aged ATP13A2 KO neurodegenerative disease mouse is placed in an upright glass beaker to observe its standing (FIG. 19). […] The angle of the hind limb to the ground (FBA, foot-based angle) in the aged ATP13A2 KO paraplegic mouse is also measured.
# [7] = system: ATP13A2 KO neurodegenerative disease model mice; assay: Transmission electron microscopy of brain tissue (lipofuscin deposition, axonal myelin sheath tearing); format: in vivo, mouse; settings: two weeks after oral administration, TEM
# Source text: Experimental method: The experiments are divided into three groups: C57BL/6 wild normal mice (WT), ATP13A2 KO neurodegenerative disease model mice+normal saline control (KO+C), and FTY720 treatment ATP13A2 KO mice (KO+FTY720). Mice are executed two weeks after oral administration, and brain tissue is removed and fixed for transmission electron microscopy analysis.
# [8] = system: ATP13A2 KO neurodegenerative disease model mice; assay: Brain tissue neurotransmitter content by HPLC; format: in vivo, mouse; settings: one week after i.p. 0.5 mg/kg, striatum, hypothalamus, substantia nigra
# Method: Experimental method: the experiment is divided into four groups: C57BL/6 normal WT mice+normal saline control group (WT+C group), ATP13A2 KO neurodegenerative disease model mice+normal saline control group (KO+C group), normal WT mice+FTY720 group (WT+FTY720 group), and ATP13A2 KO neurodegenerative disease model mice+FTY720 group (KO+FTY720 group). One week after mice are injected intraperitoneally with FTY720 (0.5 mg/kg), samples are taken from the striatum, hypothalamus, and substantia nigra of mouse brain tissue to extract neurotransmitters in the brain. Using a high performance liquid chromatography, neurotransmitters such as dopamine, serotonin, and γ-aminobutyric acid are analyzed.
# [9] = aged ATP13A2 KO mice, oral 0.5 mg/kg/day, two weeks
smiles,measurement,setting,value
CN(C)CCCN1c2ccccc2CCc2ccc(Cl)cc21 [clomipramine],intracellular sphingomyelin (SM C18) content,[1],most obvious elevation
"CCCCCCCCc1ccc(CCC(N)(CO)CO)cc1 [FTY720, 2-amino-2-[2-(4-octylphenyl)]-1,3-propanediol hydrochloride]",sphingomyelinase activity compared to the control group,sphingomyelinase,significant decrease
same,intracellular sphingomyelin (SM C18) content,[1],most obvious elevation
same,duration of stay in the rotating rod,"[2]; 0.25 mg/kg/day i.p., 5 days, ATP13A2 KO mice vs control group",significantly longer
same,duration of stay in the rotating rod,[2]; [9],significantly longer
same,"motor function (rotating rod), screen of five drugs","[2]; oral 0.5 mg/kg, one week after drug administration, ATP13A2 KO mice",improves the motor function of the ATP13A2 KO disease model mice among the five drugs with the most significant effect
same,duration of stay in the rotating rod,"[2]; oral 0.5 mg/kg/day, one week, ATP13A2 KO mice vs control group",significantly longer
same,duration of stay in the rotating rod,"[2]; single 10 μg i.c.v., one week later, ATP13A2 KO mice vs control group",significantly longer
same,"expression of cers4, cerk and sphk1",[3],downregulated
same,expression of smpd1 and enpp7,[3],upregulated
same,content of sphingomyelin and ceramide in striatum,[4],mostly restores to the normal group level
same,number of standing,[5]; [9],significant increase
same,number of standing after drug discontinuation,[5]; one week of discontinuation after 7 days oral 0.5 mg/k/day,gradual decrease
same,number of standing per 30 minutes during administration,"[5]; oral 0.5 mg/k/day, days 0-7, ATP13A2 KO paraplegic mice",increases significantly with increasing administration time
same,number of standing per 30 minutes,"[5]; oral 0.05, 0.1 and 0.5 mg/kg/day, after 7 days, ATP13A2 KO paraplegic mice",increased to different degrees in a dose-dependent manner
same,number of standing after resumption of administration,"[5]; resumed oral administration, days 15-21",gradual increase
same,standing in an upright glass beaker after drug administration,"[6]; same aged ATP13A2 KO mouse before and after drug, oral 0.5 mg/kg/day",can be photographed to stand up by clinging to the beaker wall
same,"angle of the hind limb to the ground (FBA, foot-based angle)",[6]; same aged ATP13A2 KO paraplegic mouse before and after drug,significant increase
same,number of intracellular lipofuscins in brain tissue,[7]; more than 100 cells counted,significantly reduced
same,number of torn axonal myelin sheaths in brain tissue,[7]; more than 100 myelin sheaths counted,significantly reduced
same,"neurotransmitter contents (dopamine, serotonin, γ-aminobutyric acid) in brain tissue",[8],restored to the normal group level
CNCCC(Oc1ccc(C(F)(F)F)cc1)c1ccccc1 (centres unmarked) [fluoxetine],intracellular sphingomyelin (SM C18) content,[1],most obvious elevation
CN(C)CCC=C1c2ccccc2CCc2ccccc21 [amitriptyline],intracellular sphingomyelin (SM C18) content,[1],most obvious elevation
